This is an account of results in patent EP0286926A2, “Semi-synthetic rhodomycins, method for their preparation and their use as cytostatics” (BEHRINGWERKE Aktiengesellschaft, priority 1987, dated 1988).

Molecules are shown by their SMILES. ≈ marks a conversion by molar mass, not a printed value. Where two headings read alike, the source gives them in different places.

The test system of this test is L1210 Leukämiezellen. The test is described as follows: Colony formation of L1210 leukemia cells in soft agar. It is filed as cell-based, Maus. Particulars: for IC50: Mus musculus; for zytostatische Wirksamkeit: statement in words, compared with Adriamycin. The source says: Die zytostatische Wirksamkeit der erfindungsgemäßen Verbindungen wurde anhand von L1210 Leukämiezellen der Maus getestet. Hierzu wurde die Koloniebildung von L1210 Leukämiezellen in Agarplatten herangezogen. Diese Methode dient zum Nachweis des Einflusses der Testsubstanzen auf das Wachstumsverhalten der Zellen nach Inkubation von 1 Stunde oder über mehrere Generationen. Bei einer Zelzykluszeit von 10-12 Stunden werden dabei in der Testzeit von 7 Tagen etwa 14 aufeinanderfolgende Generationen beobachtet. Die erfindungsgemäßen zytostatisch wirksamen Substanzen bewirken in diesem Test eine Reduktion der zu beobachtenden Koloniezahl gegenüber einer unbehandelten Kontrollprobe.
Einzelheiten des Testverfahrens ergeben sich aus der nachfolgenden Verfahrensweise zur Ermittlung der Koloniebildung.
Verfahrensweise zur Ermittlung der Koloniebildung von L1210 Leukämiezellen in Soft-Agar
500 Leukämiezellen pro Platte wurden mit unterschiedlichen Konzentrationen der Testsubstanz 1 Stunde bei 37°C inkubiert. Anschließend wurden die Zellen zweimal mit McCoy5A-Medium gewaschen und schließlich in Petrischalen nach Zugabe von 0,3 % Agar ausgegossen. Kontrollen wurden lediglich mit frischem Medium inkubiert. Anstelle der einstündigen Inkubation wurden in manchen Fällen unterschiedliche Konzentrationen und Testsubstanzen der oberen Agarschicht zugemischt, um so eine kontinuierliche Exposition der Zellen über die gesamte Inkubationszeit zu erreichen. Nach Erstarren des Agars wurden die Platten im Brutschrank 7 Tage bei 37°C inkubiert (5 Vol.-% CO₂, 94 % relative Luftfeuchtigkeit). Anschließend wurde die Zahl der entstandenen Kolonien mit einem Durchmesser von mehr als 60 µm gezählt. Die Ergebnisse wurden angegeben als Koloniezahl in behandelten Agarplatten in Prozent der unbehandelten Kontrolle. Aus der so erhaltenen Dosiswirkungskruve wurde die IC₅₀ als Maß für die Wirksamkeit der Substanz ermittelt. Die Ergebnisse für die hier beschriebenen Verbindungen im Vergleich zu Adriamycin sind in der nachfolgenden Tabelle 1 zusammengefaßt.

Setting [1] is: L1210, 168 h, read-out: Dauerinkubation IC50.
[2] abbreviates: L1210, read-out: 1h-Inkubation IC50.
The mark [3] stands for this setting: L1210, 168 h, continuous exposure: substance mixed into upper agar layer for the whole 7-day incubation at 37°C, colonies > 60 µm counted, percent of untreated control, read-out: Dauerinkubation IC50.
Setting [4] is: L1210, 1 h incubation with substance at 37°C, cells washed twice, then plated in 0,3 % agar for 7 days, colonies > 60 µm counted, read-out: 1h-Inkubation IC50.
[5] abbreviates: 1 h incubation with substance at 37°C, cells washed twice, then plated in 0,3 % agar for 7 days, colonies > 60 µm counted.
The mark [6] stands for this setting: continuous exposure: substance mixed into upper agar layer for the whole 7-day incubation at 37°C, colonies > 60 µm counted, percent of untreated control.

The IC50 is the concentration that gives 50% inhibition. For the compound `CC[C@@]1(O)C[C@H](O[C@H]2C[C@H](N(C)C)[C@@H](O)[C@H](C)O2)c2c(O)c3c(c(O)c2[C@H]1O)C(=O)c1cccc(O)c1C3=O` [Beispiel 16, 7-0-(3-N,N-Dimethyl-α-L-acosaminyl)-β-rhodomycinon], the “zytostatische Wirksamkeit” value is recorded as “vergleichbar”. Moreover, the IC50 under setting [1] worked out at 0.006 µg/mL (≈ 0.011 µM). The concentration for half-maximal inhibition (IC50) under setting [2] turned out to be 0.02 µg/mL (≈ 0.0368 µM).

With `CC[C@@]1(O)C[C@H](O[C@H]2C[C@H](N)[C@@H](O)[C@H](C)O2)c2c(O)c3c(c(O)c2[C@H]1O[C@H]1C[C@H](N)[C@H](O)[C@H](C)O1)C(=O)c1cccc(O)c1C3=O` [Beispiel 37, 7-O-α-L-Acosaminyl-10-0-α-L-daunosaminyl-β-rhodomycinon], the IC50 is more than 1 µg/mL under setting [3] and more than 1 µg/mL under setting [4].

Turning to `CC[C@@]1(O)C[C@H](O)c2c(O)c3c(c(O)c2[C@H]1O[C@H]1C[C@H](N(C)C)[C@@H](O)[C@H](C)O1)C(=O)c1cccc(O)c1C3=O` [Beispiel 12, 10-0-(3-N,N-Dimethyl-α-L-acosaminyl)-β-rhodomycinon], the IC50 by setting is: under setting [3], 0.5 µg/mL (≈ 0.92 µM); under setting [4], more than 1 µg/mL.

In the case of `CC[C@@]1(O)C[C@H](O[C@H]2C[C@H](N(C)C)[C@H](OC(=O)c3ccccc3)[C@H](C)O2)c2c(O)c3c(c(O)c2[C@H]1O[C@H]1C[C@H](NC(=O)C(F)(F)F)[C@@H](OC(=O)c2ccc([N+](=O)[O-])cc2)[C@H](C)O1)C(=O)c1cccc(O)c1C3=O` [Beispiel 38, 7-0-(4-0-Benzoyl-α-L-rhodosaminyl)-10-0-(4-0-paranitrobenzoyl-3-N-trifluoracetyl-α-L-acosaminyl)-β-rhodomycinon], the IC50 reads like this: under setting [3], more than 1 µg/mL; under setting [4], more than 1 µg/mL.

As to `CC[C@@]1(O)C[C@H](O)c2c(O)c3c(c(O)c2[C@H]1O[C@H]1C[C@H](N)[C@@H](O)[C@H](C)O1)C(=O)c1cccc(O)c1C3=O` [Beispiel 10, 10-0-α-L-Acosaminyl-β-rhodomycinon], the IC50 by setting is: under setting [3], 0.9 µg/mL (≈ 1.75 µM); under setting [4], 6.5 µg/mL (≈ 12.6 µM).

For `CC[C@@]1(O[C@H]2C[C@H](N)[C@@H](O)[C@H](C)O2)C[C@H](O[C@H]2C[C@H](N)[C@@H](O)[C@H](C)O2)c2c(O)c3c(c(O)c2[C@H]1O[C@H]1C[C@H](N)[C@@H](O)[C@H](C)O1)C(=O)c1cccc(O)c1C3=O` [Beispiel 44, 7,9,10-Tri-O-α-L-acosaminyl-β-rhodomycinon], the half-maximal inhibitory concentration (IC50) under setting [2] was more than 1 µg/mL.

In the case of `COc1cccc2c1C(=O)c1c(O)c3c(c(O)c1C2=O)C[C@@](O)(C(=O)CO)C[C@@H]3O[C@H]1C[C@H](N)[C@H](O)[C@H](C)O1` [Adriamycin, reference compound], the IC50 runs as follows: under setting [1], 0.02 µg/mL (≈ 0.0368 µM); under setting [2], 0.04 µg/mL (≈ 0.0736 µM).

As to `CC[C@@]1(O)C[C@H](O[C@H]2C[C@H](N)[C@@H](O)[C@H](C)O2)c2c(O)c3c(c(O)c2[C@H]1O[C@H]1C[C@H](N)[C@@H](O)[C@H](C)O1)C(=O)c1cccc(O)c1C3=O` [Beispiel 33, 7,10-Di-O-α-L-acosaminyl-β-rhodomycinon], the IC50 by setting is: under setting [3], more than 1 µg/mL; under setting [4], more than 1 µg/mL.

As to `CC[C@@]1(O)C[C@H](O[C@H]2C[C@H](N)[C@@H](OCc3ccccc3)[C@H](C)O2)c2c(O)c3c(c(O)c2[C@H]1O[C@H]1C[C@H](N)[C@@H](OCc2ccccc2)[C@H](C)O1)C(=O)c1cccc(O)c1C3=O` [Beispiel 51, 7,10-Di-O-(4-O-Benzyl-α-L-acosaminyl)-β-rhodomycinon], the concentration for half-maximal inhibition (IC50) under setting [3] amounted to 0.4 µg/mL (≈ 0.485 µM) and the half-inhibitory concentration (IC50) under setting [4] came out at 0.68 µg/mL (≈ 0.824 µM).

`CC[C@@]1(O)C[C@H](O[C@@H]2O[C@@H](C)[C@@H](OC(C)=O)[C@@H](OC(C)=O)[C@H]2I)c2c(O)c3c(c(O)c2[C@H]1OC1CCCCO1)C(=O)c1cccc(O)c1C3=O` (stereo partly drawn) [Beispiel 24, 7-O-(3,4-Di-O-acetyl-2,6-didesoxy-2-iodo-α-L-talopyranosyl)-10-O-tetrahydropyranyl-β-rhodomycinon]: the “1h-Inkubation IC50” value under setting [5] is more than 1 µg/mL. Also, under setting [6], the “Dauerinkubation IC50” value was more than 1 µg/mL.

For `CC[C@@]1(O)C[C@H](O[C@H]2C[C@H](N)[C@@H](O)[C@H](C)O2)c2c(O)c3c(c(O)c2[C@H]1O)C(=O)c1cccc(O)c1C3=O` [Beispiel 15, 7-0-α-L-Acosaminyl-β-rhodomycinon], the “zytostatische Wirksamkeit” value is recorded as “vergleichbar”. Besides, the IC50 under setting [3] is 0.004 µg/mL (≈ 0.00776 µM). Also, the half-maximal inhibitory concentration (IC50) under setting [4] worked out at 0.02 µg/mL (≈ 0.0388 µM).

In the case of `CC[C@@]1(O)C[C@H](O[C@H]2C[C@H](N(C)C)[C@@H](O)[C@H](C)O2)c2c(O)c3c(c(O)c2[C@H]1O[C@H]1C[C@H](N(C)C)[C@@H](O)[C@H](C)O1)C(=O)c1cccc(O)c1C3=O` [Beispiel 34], the concentration for half-maximal inhibition (IC50) runs as follows: under setting [1], 0.026 µg/mL (≈ 0.0371 µM); under setting [2], 0.09 µg/mL (≈ 0.128 µM).

With `CC[C@@]1(O)C[C@H](O[C@H]2C[C@H](N)C[C@H](C)O2)c2c(O)c3c(c(O)c2[C@H]1O)C(=O)c1cccc(O)c1C3=O` [Beispiel 53, 7-O-(4-Desoxy-α-L-daunosaminyl)-β-rhodomycinon], the IC50 reads like this: under setting [3], 0.04 µg/mL (≈ 0.0801 µM); under setting [4], 0.05 µg/mL (≈ 0.1 µM).

Regarding `CC[C@@]1(O)C[C@H](O[C@H]2C[C@H](NC(=O)C(F)(F)F)C[C@H](C)O2)c2c(O)c3c(c(O)c2[C@H]1O)C(=O)c1cccc(O)c1C3=O` [Beispiel 52, 7-O-(4-Desoxy-3-N-trifluoracetyl-α-L-daunosaminyl)-β-rhodomycinon], the IC50 under setting [4] stood at 0.66 µg/mL (≈ 1.11 µM).

For the compound `CC[C@@]1(O)C[C@H](O[C@H]2C[C@H](N)[C@H](O)[C@H](C)O2)c2c(O)c3c(c(O)c2[C@H]1OC1CCCCO1)C(=O)c1cccc(O)c1C3=O` (stereo partly drawn) [Beispiel 21, 7-O-α-L-Daunosaminyl-10-O-tetrahydropyranyl-β-rhodomycinon], the “1h-Inkubation IC50” value under setting [5] is more than 1 µg/mL. Besides, the “Dauerinkubation IC50” value under setting [6] was 0.5 µg/mL.
